Assay results published in patent US9746463B2 (THE TRUSTEES OF COLUMBIA UNIVERSITY IN THE CITY OF NEW YORK, priority 2006, dated 2017).
Bridge positions count the residues as written; N and C are the ends. Square brackets hold non-standard residues; d marks the D form. Primed or numbered codes have the meaning given here. Ends that are not written are not given here. Gla′ = carboxylated glutamic acid

Columns and labels:
[1] = tested on: Adiponectin expression in WT adipocytes; test: Adiponectin expression in adipocytes treated with osteocalcin (real time PCR); type: cell-based, mouse
Protocol: (§1) FIG. 7A-O. Esp−/− Mice Are a Model of Increased Osteocalcin Bioactivity. (FIGS. 7A-G) Comparison between 6-week-old WT, Esp−/, Ocn+/−, and Esp−/−; Ocn+/− mice. (FIG. 7A) Blood glucose levels. (FIG. 7B) Serum insulin levels. (FIG. 7C) Serum adiponectin levels. (FIG. 7D) GTT. (FIG. 7E) ITT. (FIG. 7F) GSIS test. (FIG. 7G) Quantification of the number of Ki67-immunoreactive cells in pancreatic islets. […] (FIG. 7K) Expression of Adiponectin in WT adipocytes cultured in presence of vehicle or of 1 ng/ml of commercially available carboxylated osteocalcin (Immunotopics) or bacterially produced uncarboxylated osteocalcin. (FIG. 7L) Expression of Insulin and Cyclin D1 in WT islets cultured in presence of 0.3 ng/ml of bacterially produced uncarboxylated osteocalcin or vehicle. (FIG. 7M) Metabolic parameters and total serum osteocalcin levels in control and obese patients. (FIG. 7N-O) Quantification of carboxylated osteocalcin (HA-bound osteocalcin) in control and obese patients. In (FIGS. 7A)-(C) and (FIGS. G)-(L): *p<0.05 versus WT (Student's t test); in (FIG. D)-(F), °p<0.05 versus WT and *p % 0.001 versus WT (ANOVA followed by post hoc analysis).
FIG. 15. […] Wt adipocytes were treated for 4 hours with recombinant full-length osteocalcin (1-46) or a truncated form (1-36) or vehicle. Adiponectin expression was then quantified by real time PCR.
Primary adipocytes were isolated from epididymal fat pads by collagenase digestion. Briefly, minced adipose tissue was digested by 1 mg/ml collagenase P in KRP Buffer (20 mM HEPES, 120 mM NaCl, 6 mM KCl, 1.2 mM MgSO4, 1 mM CaCl2, 0.6 mM Na2HPO4, 0.4 mM NaH2PO4, 2.5 mM D-glucose, 2% BSA, pH 7.4) for 1 h at 37° C. The isolated cells were washed twice with KRP Buffer before being cultured in αMEM/1% FBS at 37° C. in 5% CO2.
Gene expression analyses. All gene expression analyses were performed using real time PCR. DNAse I-treated total RNA was converted to cDNA with the SuperScript III kit (Invitrogen). Real-time PCR were performed using the Taq SYBR Green Supermix with ROX (Biorad) on an MX3000 instrument (Stratagene); beta-actin amplification was used as an internal reference for each sample. All primers were from SuperArray.
A fragment of uncarboxylated osteocalcin is biologically active. Experiments were performed to test whether truncated osteocalcin was as effective as full-length uncarboxylated osteocalcin in stimulating adiponectin secretion from mouse adipocytes in vitro. Wild type adipocytes were treated for 4 hours with recombinant full-length osteocalcin (1-46) or a truncated form (1-36) (having a deletion of the first ten amino acids from the C-terminal end) or vehicle. Adiponectin expression was then quantified by real time PCR. […]

wild type osteoblasts = test: Isoproterenol on wild type osteoblasts: mRNA levels by quantitative PCR; type: cell-based
Source text: The sympathetic nervous system positively regulates OST-PTP expression. It was discovered that sympathetic nervous system (SNS) activity positively regulates Esp expression in osteoblasts. […] Thus, decreasing sympathetic activity should lead to a decrease in Esp expression and thereby to an increase in the undercarboxylated, active form of osteocalcin.

[2] = tested on: Adiponectin expression in WT adipocytes; test: Co-culture of adipocytes with warfarin-treated osteoblasts: adiponectin expression; type: cell-based, mouse; details: warfarin-treated vs vehicle-treated osteoblasts (FIG. 7J)
Protocol: as §1
Co-culture of osteoblasts and adipocytes to study regulation of adiponectin expression/secretion by osteocalcin. A co-culture assay was developed between osteoblasts and adipocytes to analyze modifications in adiponectin expression. […]

[3] = tested on: gamma-carboxylation of osteocalcin in osteoblasts; test: Osteocalcin/hydroxyapatite (HA) binding assay of medium from warfarin-treated osteoblasts; type: cell-based, mouse
Protocol: as §1
Cell culture experiments. […]
Osteocalcin/hydroxyapatite (HA) binding assay. […] Osteocalcin present in eluates and initial samples was measured by IRMA. […]

[4] = hydroxyapatite competition studies; cited from earlier work

For “1-36 fragment of uncarboxylated osteocalcin: Recombinant truncated mouse osteocalcin (1-36), ten amino acids deleted from the C-terminal end (YLGASVPSPDPLEPTREQCELNPACDELSDQYGLKT; not fully specified; ends and bridges not checked; UniProt P86546 50-85, looked up, fragment)”, the “increase of Adiponectin expression” value ([1]; wild type adipocytes treated for 4 hours, real time PCR, vs vehicle) was about 1.8 fold and the “potency in inducing adiponectin expression compared with native osteocalcin” value ([1]; wt adipocytes, 4 hours, in vitro) was “as potent as native osteocalcin”.

For `CC(C)NCC(O)c1ccc(O)c(O)c1` (stereo not drawn) [isoproterenol], the “expression of gamma-carboxylase (ggcx)” value (wild type osteoblasts) was “did not increase expression”, the expression of osteocalcin (wild type osteoblasts) was “did not increase expression” and the expression of vkor (wild type osteoblasts) was “did not increase expression”. The “increase of Esp expression” value (wild type osteoblasts; at 8 hours) was “remains steady” and the “increase of Esp expression” value (wild type osteoblasts; by 4 hours) was “about 80%”.

In the case of `CC(=O)CC(c1ccccc1)c1c(O)c2ccccc2oc1=O` (stereo not drawn) [warfarin], the “induction of adiponectin expression in co-cultured adipocytes” value [2] is reported as “significantly higher extent”, the “percentage of osteocalcin bound to HA” value ([3]; conditioned medium of warfarin-treated osteoblasts vs vehicle (FIG. 7I)) is reported as “marked decrease” and the “levels of undercarboxylated osteocalcin produced by osteoblasts” value ([3]; warfarin-treated vs vehicle-treated osteoblasts (FIG. 7I)) is reported as “elevated levels”.

In the case of “Decarboxylated osteocalcin: thermally decarboxylated osteocalcin of the literature (YLYQWLGAPVPYPDPLEPRREVCELNPDCDELADHIGFQEAYRRFYGPV; not fully specified; ends and bridges not checked; UniProt P02818 52-100, looked up)”, the “competition with ^125I-labeled osteocalcin bound to hydroxyapatite” value [4] is given as “fail to compete”.

For “carboxylated osteocalcin: commercially available carboxylated osteocalcin (Immunotopics) (YLYQWLGAPVPYPDPL[Gla′]PRR[Gla′]VC[Gla′]LNPDCDELADHIGFQEAYRRFYGPV; disulfide 23-29; ends not checked; also: carboxylated (Gla), sites not given here; UniProt P02818 52-100, looked up) [reference compound]”, the “induction of adiponectin expression” value ([1]; WT adipocytes, 1 ng/ml (FIG. 7K)) was “failed to induce adiponectin expression”.
